A short description of the data set: Ex vivo biodistribution in PC-3 tumor-bearing mice. The following applies: male, NRG, mouse, iv, total radioactivity, 1 h post-injection, mice bearing PC-3 tumor xenografts, n = 4.
The mark [1] stands for this setting: PC-3 tumor, Biodistribution PC3 tumor Mean.
The mark [2] stands for this setting: adrenal, Biodistribution Adrenal Mean.
The mark [3] stands for this setting: bone, Biodistribution Bone Mean.
[4] abbreviates: brain, Biodistribution Brain Mean.
Setting [5] is: heart, Biodistribution Heart Mean.
The mark [6] stands for this setting: kidneys, Biodistribution Kidneys Mean.
Where [7] appears, read: liver, Biodistribution Liver Mean.
Where [8] appears, read: lungs, Biodistribution Lungs Mean.
[9] abbreviates: muscle, Biodistribution Muscle Mean.
Setting [10] is: pancreas, Biodistribution Pancreas Mean.
The mark [11] stands for this setting: seminal, Biodistribution Seminal Mean.
Where [12] appears, read: small intestine, Biodistribution Small Intestine Mean.
Where [13] appears, read: spleen, Biodistribution Spleen Mean.
The mark [14] stands for this setting: stomach, Biodistribution Stomach Mean.
The mark [15] stands for this setting: testes, Biodistribution Testes Mean.
The mark [16] stands for this setting: whole blood, Biodistribution Blood Mean.
[17] abbreviates: large intestine, Biodistribution Large Intestine Mean.

The structures appear in SMILES notation. Numbered stars: 1 amine (or outer) side, 2 acyl side, 3 side chain; on linkers, the order of the positions; unused ones are H or OH. Square brackets hold non-standard residues; d marks the D form. Peptide text beside a SMILES is read from it. * marks the point of attachment. DOTA = O=C(O)CN1CCN(CC(=O)O)CCN(CC(=O)*)CCN(CC(=O)O)CC1; Leuψ(CH2N)ThzNH2 = CC(C)C[C@@H](CN1CSC[C@H]1C(N)=O)N*; X1 = O=C(CN1CCC(N[*:1])CC1)[*:2]

Drawing on patent US12246076B2, “Radiolabeled compounds for in vivo imaging of gastrin-releasing peptide receptor (GRPR) and treatment of GRPR-related disorders” (PROVINCIAL HEALTH SERVICES AUTHORITY, priority 2022, dated 2025), this text covers tissue uptake for five compounds.

As a reminder, the tissue uptake is the percentage of the injected dose found per gram of tissue.

Method: All imaging and biodistribution studies were performed using male NOD.Cg-Rag1^tm1MoM II2rg^tm1WI/SzJ (NRG) mice and conducted according to the guidelines established by the Canadian Council on Animal Care and approved by Animal Ethics Committee of the University of British Columbia. For tumor inoculations, mice were anesthetized by inhalation with 2% isoflurane in oxygen and implanted subcutaneously with 5×10^6 PC-3 cells below the left shoulder. Imaging and biodistribution studies were performed only after tumors grew to 5-8 mm in diameter.
For PET/CT imaging studies, ˜3-4 MBq of the ^68Ga-labeled tracer was injected through the tail vein. Mice were allowed to recover and roam freely in the cages after injecting the tracer. At 45 min post-injection (p.i.), mice were sedated again and positioned on the scanner. First, a 10 min CT scan was conducted for localization and attenuation correction for reconstruction of PET images, before a 10 min PET image was acquired. Heating pads were used during the entire procedure to keep the mice warm. For ex vivo biodistribution studies, mice were injected with ˜1.5-3 MBq of the ^68Ga-labeled tracer. At 1 h p.i., mice were euthanized, blood was drawn from heart, and organs/tissues of interest were collected, rinsed with PBS, blotted dry, weighed, and counted using an automated gamma counter. The uptake in each organ/tissue was normalized to the injected dose and expressed as the percentage of the injected dose per gram of tissue (% ID/g).
All imaging and biodistribution studies were performed using male NOD.Cg-Rag1tm1Mom II2rgtm1WjI/SzJ (NRG) mice and conducted according to the guidelines established by the Canadian Council on Animal Care and approved by Animal Ethics Committee of the University of British Columbia. For tumor inoculations, mice were anesthetized by inhalation with 2% isoflurane in oxygen and implanted subcutaneously with 5×10^6 PC-3 cells below the left shoulder. Imaging and biodistribution studies were performed only after tumors grew to 5-8 mm in diameter.
For PET/CT imaging studies, ˜5 MBq of the ^68Ga-labeled tracer was injected through the tail vein. Mice were allowed to recover and roam freely in the cages after injecting the tracer. At 45 min post-injection (p.i.), mice were sedated again and positioned on the scanner. First, a 10 min CT scan was conducted for localization and attenuation correction for reconstruction of PET images, before a 10 min PET image was acquired. Heating pads were used during the entire procedure to keep the mice warm. For ex vivo biodistribution studies, mice were injected with ˜3 MBq of the 68Ga-labeled tracer. At 1 h p.i., mice were euthanized, blood was drawn from heart, and organs/tissues of interest were collected, rinsed with PBS, blotted dry, weighed, and counted using an automated gamma counter.

Turning to `CC(C)C[C@H](NC(=O)[C@H](Cc1c[nH]cn1)NC(=O)CNC(=O)[C@@H](NC(=O)[C@H](C)NC(=O)[C@H](Cc1c[nH]c2ccccc12)NC(=O)[C@H](CCC(N)=O)NC(=O)[C@@H](Cc1ccccc1)NC(=O)CN1CCC(NC(=O)CN2CCN(CC(=O)O)CCN(CC(=O)O)CCN(CC(=O)O)CC2)CC1)C(C)C)C(=O)N1CSC[C@H]1C(N)=O` [^68Ga-LW01025, metal not drawn], the tissue uptake at 1 h under setting [1] turned out to be 6.2 %ID/g; the tissue uptake at 1 h under setting [2] turned out to be 0.54 %ID/g; the tissue uptake at 1 h under setting [3] was determined as 0.24 %ID/g; the tissue uptake at 1 h under setting [4] is 0.03 %ID/g; the tissue uptake at 1 h (fat, Biodistribution Fat Mean) worked out at 0.09 %ID/g; the tissue uptake at 1 h under setting [5] amounted to 0.13 %ID/g. In addition, the tissue uptake at 1 h turned out to be 2.37 %ID/g under setting [6]; 0.29 %ID/g under setting [7]; 0.34 %ID/g under setting [8]; 0.13 %ID/g under setting [9]; 1.28 %ID/g under setting [10]; 0.06 %ID/g under setting [11]. Besides, the tissue uptake at 1 h under setting [12] amounted to 0.56 %ID/g; the tissue uptake at 1 h under setting [13] was 0.23 %ID/g; the tissue uptake at 1 h under setting [14] was found to be 0.54 %ID/g; the tissue uptake at 1 h under setting [15] came out at 0.16 %ID/g; the tissue uptake at 1 h under setting [16] is 0.34 %ID/g.

Turning to `CC(C)C[C@H](NC(=O)[C@H](Cc1c[nH]cn1)NC(=O)CNC(=O)[C@@H](NC(=O)[C@H](C)NC(=O)[C@H](Cc1c[nH]c2ccccc12)NC(=O)[C@H](CCC(N)=O)NC(=O)[C@@H](Cc1ccc2ccccc2c1)NC(=O)CN1CCC(NC(=O)CN2CCN(CC(=O)O)CCN(CC(=O)O)CCN(CC(=O)O)CC2)CC1)C(C)C)C(=O)N1CSC[C@H]1C(N)=O` [^68Ga-LW01029, metal not drawn], the tissue uptake at 1 h worked out at 4.7 %ID/g under setting [1]; 0.82 %ID/g under setting [2]; 0.19 %ID/g under setting [3]; 0.04 %ID/g under setting [4]; 0.18 %ID/g (fat, Biodistribution Fat Mean); 0.36 %ID/g under setting [5]. Also, the tissue uptake at 1 h under setting [6] was found to be 4.73 %ID/g; the tissue uptake at 1 h under setting [17] was 0.96 %ID/g; the tissue uptake at 1 h under setting [7] was 0.63 %ID/g; the tissue uptake at 1 h under setting [8] came out at 1.82 %ID/g; the tissue uptake at 1 h under setting [9] stood at 0.23 %ID/g; the tissue uptake at 1 h under setting [10] worked out at 2.56 %ID/g. In addition, the tissue uptake at 1 h by setting is: under setting [11], 0.13 %ID/g; under setting [12], 1.05 %ID/g; under setting [13], 0.45 %ID/g; under setting [14], 0.77 %ID/g; under setting [15], 0.33 %ID/g; under setting [16], 1.08 %ID/g.

For `CC(C)C[C@@H](CN1CSC[C@H]1C(N)=O)NC(=O)[C@H](Cc1c[nH]cn1)NC(=O)CNC(=O)[C@@H](NC(=O)[C@H](C)NC(=O)[C@H](Cc1c[nH]c2ccccc12)NC(=O)[C@H](CCC(N)=O)NC(=O)[C@@H](Cc1ccc2ccccc2c1)NC(=O)CN1CCC(NC(=O)CN2CCN(CC(=O)O)CCN(CC(=O)O)CCN(CC(=O)O)CC2)CC1)C(C)C` [^68Ga-LW01059, metal not drawn], the tissue uptake at 1 h by setting is: under setting [1], 6.84 %ID/g; under setting [2], 1.81 %ID/g; under setting [3], 0.42 %ID/g; under setting [4], 0.06 %ID/g; (fat, Biodistribution Fat Mean) 0.19 %ID/g; under setting [5], 0.66 %ID/g. In addition, the tissue uptake at 1 h under setting [6] is 4.49 %ID/g; the tissue uptake at 1 h under setting [17] was found to be 0.66 %ID/g; the tissue uptake at 1 h under setting [7] was 21.5 %ID/g; the tissue uptake at 1 h under setting [8] was 3.05 %ID/g; the tissue uptake at 1 h under setting [9] was found to be 0.28 %ID/g; the tissue uptake at 1 h under setting [10] is 7.26 %ID/g. Moreover, the tissue uptake at 1 h runs as follows: under setting [12], 2.15 %ID/g; under setting [13], 0.68 %ID/g; under setting [14], 1.1 %ID/g; under setting [15], 0.33 %ID/g; under setting [16], 2.16 %ID/g.

As to `CC(C)C[C@@H](CN1CSC[C@H]1C(N)=O)NC(=O)[C@H](Cc1c[nH]cn1)NC(=O)CNC(=O)[C@@H](NC(=O)[C@H](C)NC(=O)[C@H](Cc1c[nH]c2ccccc12)NC(=O)[C@H](Cc1c[nH]cn1)NC(=O)[C@@H](Cc1ccccc1)NC(=O)CN1CCC(NC(=O)CN2CCN(CC(=O)O)CCN(CC(=O)O)CCN(CC(=O)O)CC2)CC1)C(C)C` [^68Ga-LW01102, metal not drawn] ({DOTA}-[X1][dF]HWAVGH-{Leuψ(CH2N)ThzNH2}), the tissue uptake at 1 h stood at 7.46 %ID/g under setting [1]; 1.36 %ID/g under setting [2]; 0.13 %ID/g under setting [3]; 0.04 %ID/g under setting [4]; 0.09 %ID/g (fat, Biodistribution Fat Mean); 0.36 %ID/g under setting [5]. Moreover, the tissue uptake at 1 h under setting [6] turned out to be 6.3 %ID/g; the tissue uptake at 1 h under setting [17] was 1.25 %ID/g; the tissue uptake at 1 h under setting [7] turned out to be 3.22 %ID/g; the tissue uptake at 1 h under setting [8] amounted to 1.55 %ID/g; the tissue uptake at 1 h under setting [9] came out at 0.18 %ID/g; the tissue uptake at 1 h under setting [10] is 13.1 %ID/g. Also, the tissue uptake at 1 h is, setting by setting: under setting [11], 0.23 %ID/g; under setting [12], 2.85 %ID/g; under setting [13], 0.52 %ID/g; under setting [14], 1.23 %ID/g; under setting [15], 0.33 %ID/g; under setting [16], 1.13 %ID/g.

With `CC(C)C[C@@H](CN1CCC[C@H]1C(N)=O)NC(=O)[C@H](Cc1c[nH]cn1)NC(=O)CN(C)C(=O)[C@@H](NC(=O)[C@H](C)NC(=O)[C@H](Cc1c[nH]c2ccccc12)NC(=O)[C@H](CCC(N)=O)NC(=O)[C@@H](Cc1ccccc1)NC(=O)CN1CCC(NC(=O)CN2CCN(CC(=O)O)CCN(CC(=O)O)CCN(CC(=O)O)CC2)CC1)C(C)C` [^68Ga-LW02045, metal not drawn], the tissue uptake at 1 h stood at 12.4 %ID/g under setting [1]; 0.44 %ID/g under setting [2]; 0.07 %ID/g under setting [3]; 0.02 %ID/g under setting [4]; 0.03 %ID/g (fat, Biodistribution Fat Mean); 0.14 %ID/g under setting [5]. Moreover, the tissue uptake at 1 h runs as follows: under setting [6], 2.54 %ID/g; under setting [17], 0.34 %ID/g; under setting [7], 0.37 %ID/g; under setting [8], 1.08 %ID/g; under setting [9], 0.1 %ID/g; under setting [10], 1.37 %ID/g. Further, the tissue uptake at 1 h by setting is: under setting [11], 3.8 %ID/g; under setting [12], 0.48 %ID/g; under setting [13], 0.18 %ID/g; under setting [14], 0.35 %ID/g; under setting [15], 0.12 %ID/g; under setting [16], 0.43 %ID/g.
